# The source made the active and inactive calls. The rule behind the calls is not given here.
# Columns and labels:
# Homo sapiens [1] = species: Homo sapiens; test: Selectivity ratio of Ki for GABAA alpha3beta3gamma3 (unknown origin) to Ki for GABAA alpha5beta3gamma2 (unknown origin)
# Homo sapiens [2] = species: Homo sapiens; test: Selectivity ratio of Ki for GABAA alpha2beta3gamma2 (unknown origin) to Ki for GABAA alpha5beta3gamma2 (unknown origin)
# Homo sapiens [3] = species: Homo sapiens; test: Selectivity ratio of Ki for GABA-Aalpha1beta3gamma2 (unknown origin) to Ki for GABAA alpha5beta3gamma2 (unknown origin)
# Rattus norvegicus [4] = test: In vivo GABAA alpha5beta3gamma2 receptor occupancy in Rattus norvegicus (rat) assessed as inhibition of [3H]L-655,708 binding at 0.3 mg/kg, ip; format: functional; settings: route intraperitoneal
# Rattus norvegicus [5] = test: Cognitive enhancing effect in Rattus norvegicus (rat) at 0.3 mg/kg, ip by water maze test; format: functional, organism-based; parameters: dose 0.3 mg/kg
# [6] = biological target: Gamma-aminobutyric acid receptor subunit alpha-3/ beta-3/gamma-3 (Homo sapiens) (UniProt P28472+Q99928+P34903); test: Antagonist activity at GABAA alpha3beta3gamma3 in Homo sapiens (human) L(tk-) cells relative to GABA
# [7] = biological target: GABA-A receptor; alpha-1/beta-3/gamma-2 (Homo sapiens) (UniProt P14867+P18507+P28472); test: Modulation of GABA-Aalpha1beta3gamma2 in Homo sapiens (human) L(tk-) cells relative to GABA
# [8] = biological target: GABA-A receptor; alpha-5/beta-3/gamma-2 (Homo sapiens) (UniProt P18507+P28472+P31644); test: Modulation of GABAA alpha5beta3gamma2 in Homo sapiens (human) L(tk-) cells patch clamp assay relative to GABA
# [9] = biological target: GABA-A receptor; alpha-2/beta-3/gamma-2 (Homo sapiens) (UniProt P18507+P28472+P47869); test: Antagonist activity at GABAA alpha2beta3gamma2 in Homo sapiens (human) L(tk-) cells by patch clamp assay relative to GABA
# [10] = biological target: T1, GABA-A receptor; alpha-5/beta-3/gamma-2 (Homo sapiens, UniProt P18507+P28472+P31644); test: Inverse agonist activity at GABAA alpha5beta3gamma2 in Homo sapiens (human) L(tk-) cells by patch clamp assay
# T1 sequence (P18507 whole entry): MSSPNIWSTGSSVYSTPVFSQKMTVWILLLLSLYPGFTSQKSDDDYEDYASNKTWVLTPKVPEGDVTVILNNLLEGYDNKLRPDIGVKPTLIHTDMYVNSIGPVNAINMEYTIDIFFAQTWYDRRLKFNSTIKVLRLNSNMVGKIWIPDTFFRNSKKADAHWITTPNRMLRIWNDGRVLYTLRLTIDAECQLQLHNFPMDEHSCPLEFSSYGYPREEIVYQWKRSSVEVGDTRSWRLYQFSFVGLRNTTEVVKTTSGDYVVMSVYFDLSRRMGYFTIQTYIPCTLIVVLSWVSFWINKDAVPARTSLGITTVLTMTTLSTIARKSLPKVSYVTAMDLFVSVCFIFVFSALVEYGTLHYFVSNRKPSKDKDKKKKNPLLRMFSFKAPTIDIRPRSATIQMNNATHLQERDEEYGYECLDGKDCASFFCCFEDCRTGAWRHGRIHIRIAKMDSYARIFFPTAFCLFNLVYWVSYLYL
# T1 sequence (P28472 whole entry): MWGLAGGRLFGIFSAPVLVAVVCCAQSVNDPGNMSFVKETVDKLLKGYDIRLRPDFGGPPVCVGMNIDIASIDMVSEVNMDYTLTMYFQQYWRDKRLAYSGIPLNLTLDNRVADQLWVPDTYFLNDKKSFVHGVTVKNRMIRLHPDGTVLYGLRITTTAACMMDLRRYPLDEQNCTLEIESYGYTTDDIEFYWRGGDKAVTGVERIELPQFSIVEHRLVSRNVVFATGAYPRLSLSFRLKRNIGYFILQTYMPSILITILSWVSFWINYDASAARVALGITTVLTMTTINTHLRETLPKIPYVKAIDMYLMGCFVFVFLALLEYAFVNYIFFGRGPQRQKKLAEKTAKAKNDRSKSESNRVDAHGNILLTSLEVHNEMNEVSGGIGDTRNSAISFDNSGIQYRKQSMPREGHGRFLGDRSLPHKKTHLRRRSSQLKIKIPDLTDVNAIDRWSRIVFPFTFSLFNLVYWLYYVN
# T1 sequence (P31644 whole entry): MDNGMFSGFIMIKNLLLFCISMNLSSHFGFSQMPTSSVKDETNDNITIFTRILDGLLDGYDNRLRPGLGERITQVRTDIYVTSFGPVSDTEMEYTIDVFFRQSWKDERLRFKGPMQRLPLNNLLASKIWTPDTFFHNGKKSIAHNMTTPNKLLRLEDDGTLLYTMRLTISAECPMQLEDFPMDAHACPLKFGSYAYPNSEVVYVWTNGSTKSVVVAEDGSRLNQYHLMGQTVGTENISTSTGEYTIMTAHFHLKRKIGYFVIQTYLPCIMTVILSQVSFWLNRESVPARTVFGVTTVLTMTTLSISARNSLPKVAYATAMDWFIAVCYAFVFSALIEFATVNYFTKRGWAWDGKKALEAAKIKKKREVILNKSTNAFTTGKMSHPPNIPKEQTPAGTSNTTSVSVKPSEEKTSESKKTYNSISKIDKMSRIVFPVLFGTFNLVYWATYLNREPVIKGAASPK
# [11] = biological target: T2, Gamma-aminobutyric acid receptor subunit alpha-3/ beta-3/gamma-3 (Homo sapiens, UniProt P28472+P34903+Q99928); test: Binding affinity to GABAA alpha3beta3gamma3 (unknown origin); format: protein-complex assay
# T2 sequence (P28472 whole entry): T1 sequence (P28472 whole entry)
# T2 sequence (Q99928 whole entry): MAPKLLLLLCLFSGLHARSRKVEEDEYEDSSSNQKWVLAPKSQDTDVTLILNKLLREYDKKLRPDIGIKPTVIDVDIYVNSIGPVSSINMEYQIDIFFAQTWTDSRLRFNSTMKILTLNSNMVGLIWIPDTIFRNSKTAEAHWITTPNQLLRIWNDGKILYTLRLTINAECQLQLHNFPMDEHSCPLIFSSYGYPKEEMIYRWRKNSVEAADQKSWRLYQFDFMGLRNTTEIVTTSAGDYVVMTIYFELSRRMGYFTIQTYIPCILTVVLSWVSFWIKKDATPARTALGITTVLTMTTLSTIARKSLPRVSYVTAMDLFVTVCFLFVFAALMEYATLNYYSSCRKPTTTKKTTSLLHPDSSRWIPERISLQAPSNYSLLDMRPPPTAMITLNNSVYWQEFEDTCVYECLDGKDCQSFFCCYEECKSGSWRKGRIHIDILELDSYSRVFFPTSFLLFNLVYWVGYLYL
# T2 sequence (P34903 whole entry): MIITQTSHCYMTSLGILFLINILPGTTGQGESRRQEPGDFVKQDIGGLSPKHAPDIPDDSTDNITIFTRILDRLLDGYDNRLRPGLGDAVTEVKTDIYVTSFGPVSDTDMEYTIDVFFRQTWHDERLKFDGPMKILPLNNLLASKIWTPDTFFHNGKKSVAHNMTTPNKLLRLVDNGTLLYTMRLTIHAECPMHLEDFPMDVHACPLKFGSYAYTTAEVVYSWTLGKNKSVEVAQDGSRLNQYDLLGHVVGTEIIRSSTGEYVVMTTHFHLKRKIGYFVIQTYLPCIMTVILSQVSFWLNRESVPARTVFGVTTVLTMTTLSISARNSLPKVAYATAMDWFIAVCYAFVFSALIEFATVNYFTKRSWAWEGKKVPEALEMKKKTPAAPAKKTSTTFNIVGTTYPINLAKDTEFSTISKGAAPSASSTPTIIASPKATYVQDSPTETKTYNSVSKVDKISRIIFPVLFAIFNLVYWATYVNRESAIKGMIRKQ
compound,measurement,setting,value
CC1(C)CC(=O)c2c(SCCO)sc(-c3nccs3)c2C1,Ratio Ki,Homo sapiens [1],10
same,Ratio Ki,Homo sapiens [2],10
same,Ratio Ki,Homo sapiens [3],10
same,Occ,Rattus norvegicus [4],40%
same,Activity,Rattus norvegicus [5],Active
same,Activity,[6],Active
same,Efficacy,[7],-21%
same,Emax,[8],-51%
same,Activity,[9],Active
same,EC50,[10],0.7 nM
same,Ki,[11],20 nM

# Source: ChEMBL document CHEMBL3046746, “Introduction to Receptors in Aging Diseases: GABA Receptors” (Med Chem Res, 2004)
